Test results from US8293253B2, “Compositions for controlled delivery of pharmaceutically active compounds” (IDEXX Laboratories, Inc., priority 2004, dated 2012).

Assay: Dissolution of AMP alone in organic solvent
Type: physicochemical
Excerpt: (§1) […] […] 1 eq. of a phosphorylated nucleotide such as adefovir can be substituted for each eq. of AMP.
as §1

Dissolution of AMP alone in N-methyl pyrrolidone (0.5 g in 10 mL of N-methyl pyrrolidone, absence of tyrosine butyrate): will not dissolve
Dissolution of AMP alone in glycerol formal (1 g in 10 mL of glycerol formal, absence of isoleucine butyrate): will not dissolve
Compound: Nc1ncnc2c1ncn2[C@@H]1O[C@H](COP(=O)(O)O)[C@@H](O)[C@H]1O [AMP, Adenosine monophosphate]
